System: ringworm infection
Assay: Treatment of ringworm infections on the skin of volunteer patients
Format: in vivo, human
Conditions: twin teenage boys; prescribed oral treatment
Description: The effectiveness of Composition A in treating fungal infections on the skin was determined on volunteer patients. In a first case, twin teenage boys were experiencing ringworm infections on the face, scalp, and neck. […] For […], the ringworm sores on […] face were treated by directly applying Composition A to the sores.
The other teenage child was treated with a 100% solution of Composition A by dabbing it on the sores of their scalp and neck using a cotton swab twice a day over the course of 3 days. Various sores were treated over the next four to seven days with a diluted solution of Composition A. In particular, a few drops of Composition A were diluted with 10 drops of water, and the diluted solution was applied to the sores. […] Thereafter, a 1:100 solution of Composition A in water was used as a preventative treatment on the scalp prior to showering to avoid new ringworm infections.
Thus, in a second test case, Composition A was used to treat a ringworm infection on the neck and shoulder region of a teenage child. Composition A was formulated with an aloe vera clear cream at a 2% w/v.
In a third case, a middle-aged person was experiencing a significant ringworm infection on one foot. The ringworm infection was treated with Composition A in an aloe vera clear cream at 2% w/v.

## OC(Cn1cncn1)(Cn1cncn1)c1ccc(F)cc1F [oral fluconazole, fluconazole]
  ringworm infections on face, scalp and neck: ineffective at completely eradicating the ringworm infection

Reference: patent US20230173004A1, “Method and Composition for Treating Ringworm on Biotic and Abiotic Surfaces” (Jeneil Biosurfactant Company, LLC, priority 2021, published 2023)
